Strand notation (5' to 3'): a small letter for the sugar, then the base; units joined by * are phosphorothioate-linked, units joined directly phosphodiester-linked; [ ] holds rarer units or linkages, { } end groups; capitals alone tell only the bases. d = 2'-deoxy (DNA)
Tests used:
ICAM-1 [1] = assay: ELISA of ICAM-1 cell surface expression in C8161 human melanoma cells; format: cell-based; conditions: 15 μg/ml Lipofectin, 5 ng/ml TNF-α 16 hours
Procedure: (§1) ICAM-1 expression on the cell surface was measured by ELISA. Cells were treated with increasing concentrations of antisense oligonucleotides in the presence of 15 μg/ml Lipofectin for 4 hours at 37° C. ICAM-1 expression was induced by incubation with 5 ng/ml TNF-α for 16 hours. Cells were washed 3× in DPBS and fixed for 20 minutes in 2% formaldehyde. Cells were washed in DPBS, blocked with 2% BSA for 1 hour at 37° C. and incubated with ICAM-1 monoclonal antibody 84H10 (AMAC, Inc., Westbrook, Me.). Detection of bound antibody was determined by incubation with a biotinylated goat anti-mouse IgG followed by incubation with […] streptavidin and developed with chlorophenol red-β-D-galactopyranoside and quantified by absorbance at 575 nm. ICAM-1 mRNA levels were measured by Northern blot analysis.
The data were expressed as percentage of control activity, calculated as follows: (ICAM-1 expression for oligonucleotide-treated, cytokine-induced cells)−(basal ICAM-1 expression)/(ICAM-1 cytokine-induced expression)−(basal ICAM-1 expression)×100.

ICAM-1 mRNA = assay: Northern blot of ICAM-1 mRNA in C8161 cells; format: cell-based, human; conditions: Northern blot analysis
Procedure: as §1

ICAM-1 [2] = assay: ELISA screening for ICAM-1 expression in interleukin-1β-stimulated cells (HUVEC and A549); format: cell-based, human; conditions: for inhibition of ICAM-1 expression, relative activity in words: interleukin-1β-stimulated cells, two cell lines (HUVEC, A549); for inhibition of ICAM-1 expression after premixing with respective sense strand: premixed/prehybridized at equal molar concentrations with sense strand (ISIS 1575 or ISIS 2115)
ICAM-1 [3] = assay: ELISA of ICAM-1 expression in primary human keratinocytes; format: cell-based
Procedure: (§2) Expression of ICAM-1, VCAM-1 and ELAM-1 on the surface of cells can be quantitated using specific monoclonal antibodies in an ELISA. Cells are grown to confluence in 96 well microtiter plates. The cells are stimulated with either interleukin-1 or tumor necrosis factor for 4 to 8 hours to quantitate ELAM-1 and 8 to 24 hours to quantitate ICAM-1 and VCAM-1. Following the appropriate incubation time with the cytokine, the cells are gently washed three times with a buffered isotonic solution containing calcium and magnesium such as Dulbecco's phosphate buffered saline (D-PBS). The cells are then directly fixed on the microtiter plate with 1 to 2% paraformaldehyde diluted in D-PBS for 20 minutes at 25° C. The cells are washed again with D-PBS three times. Nonspecific binding sites on the microtiter plate are blocked with 2% bovine serum albumin in D-PBS for 1 hour at 37° C. Cells are incubated with the appropriate monoclonal antibody diluted in blocking solution for 1 hour at 37° C. Unbound antibody is removed by washing the cells three times with D-PBS. Antibody bound to the cells is detected by incubation with a 1:1000 dilution of biotinylated goat anti-mouse IgG (Bethesda Research Laboratories, Gaithersburg, Md.) in blocking solution for 1 hour at 37° C. Cells are washed three times with D-PBS and then incubated with a 1:1000 dilution of streptavidin conjugated to β-galactosidase (Bethesda Research Laboratories) for 1 hour at 37° C. The cells are washed three times with D-PBS for 5 minutes each. The amount of β-galactosidase bound to the specific monoclonal antibody is determined by developing the plate in a solution of 3.3 mM chlorophenolred-β-D-galactopyranoside, 50 mM sodium phosphate, 1.5 mM MgCl2; pH=7.2 for 2 to 15 minutes at 37° C. The concentration of the product is determined by measuring the absorbance at 575 nm in an ELISA microtiter plate reader. […]
(§3) Cells grown in 96-well plates were washed three times with Opti-MEM (GIBCO, Grand Island, N.Y.) prewarmed to 37° C. […] ICAM-1 expression was determined as described in Example 1. […]

ICAM-1 [4] = assay: ELISA of ICAM-1 expression in A431 cells; format: cell-based; conditions: human epidermal carcinoma A431 cells
Procedure: as §2, §3

| Substance | cell surface expression of ICAM-1 (ICAM-1 [1]) | ICAM-1 mRNA levels (ICAM-1 mRNA) | inhibition of ICAM-1 expression, relative activity in words (ICAM-1 [2]) | inhibition of ICAM-1 expression after premixing with respective sense strand (ICAM-1 [2]) | inhibition of ICAM-1 expression (ICAM-1 [3]) | inhibition of ICAM-1 expression (ICAM-1 [4]) |
| --- | --- | --- | --- | --- | --- | --- |
| ISIS 1570: phosphorothioate, human ICAM-1 AUG Codon (64-81), SEQ ID NO 1, TGGGAGCCATAGCGAGGC (antisense dT*dG*dG*dG*dA*dG*dC*dC*dA*dT*dA*dG*dC*dG*dA*dG*dG*dC) | decreased cell surface expression of ICAM-1 | decreased ICAM-1 mRNA levels only slightly | most active | blocked the effects of ISIS 1570 | inhibit ICAM-1 expression | inhibit ICAM-1 expression |
| ISIS 1939: P=S, human ICAM-1 3′-Untranslated (1952-1971), SEQ ID NO 15, CCCCCACCACTTCCCCTCTC (antisense dC*dC*dC*dC*dC*dA*dC*dC*dA*dC*dT*dT*dC*dC*dC*dC*dT*dC*dT*dC) | decreased cell surface expression of ICAM-1 | markedly reduced | most active | completely blocked | inhibit ICAM-1 expression | inhibit ICAM-1 expression |

Source: patent publication US6849612B2, “Oligonucleotide modulation of cell adhesion” (ISIS Pharmaceuticals, Inc., priority 1993, dated 2005)
